Each structure is given as a SMILES string. “Also recorded” adds a separate entry of the source.

Data set [1] relates to C2C12 myoblasts. Nature of the data set: EdU proliferation assay in C2C12 myoblasts. Format: cell-based, mouse. As to the method:
Cells were seeded at 0.2×10^5 concentration and treated with desired compounds and controls overnight. The seeding density was decided after trying several densities and choosing the one that after 24 h lead to visible, not clumping cells. 10 μM 5-ethynyl-2′-deoxyuridine (EdU) incorporation was performed during 4 h according to the kit protocol and detected by Click-iT Imaging Kit with Alexa 488 Fluorophore (Invitrogen). 1 μg/ml 4′,6′-diamidine-2′-phenylindole dihydrochloride (DAPI) was used to label for nuclei. Total number of EdU+ cells was counted from 8 representative fields at 20× and the rate of proliferation was calculated as percentage of EdU+/DAPI.

The test system of data set [2] is C3H10T1/2 cells. Nature of the data set: Clock and Wnt gene/protein expression in C3H10T1/2 cells. Format: cell-based. Particulars: for β-catenin protein level during adipogenic differentiation: 1 μM, before and after adipogenic induction; for mRNA levels of Wnt ligands and receptors / clock gene expression: 10T1/2 cells; for mRNA levels of Wnt ligands and receptors: 6 hours; for clock gene expression: RT-qPCR. As to the method:
Immunoblot analysis. Total protein was extracted using lysis buffer containing 3% NaCl, 5% Tris-HCl, 10% Glycerol, 0.5% Triton X-10 in MilliQ water with protease inhibitor cocktail. 20-40 μg of total protein was resolved on 10% SDS-PAGE gels followed by immunoblotting on PVDF membranes (Bio-rad). Membranes were developed by chemiluminescence (SuperSignal West Pico, Pierce Biotechnology) and signals were obtained via a chemiluminescence imager (Amersham Imager 680, GE Biosciences).
RNA extraction and RT-qPCR analysis. PureLink RNA Mini Kit (Invitrogen) were used to isolate total RNA from cells. cDNA was generated using Revert Aid RT kit (ThermoFisher) and quantitative PCR was performed using SYBR Green Master Mix (Thermno Fisher) in triplicates on ViiA 7 Real-Time PCR System (Applied Biosystems). Relative expression levels were determined using the comparative Ct method with normalization to 361B4 as internal control.
On the technique in general: In qPCR the cycle at which signal appears reflects the starting amount.

Data set [3] concerns U2OS cells containing Per2::dLuc luciferase reporter. The data set can be described thus: Real-time bioluminescence monitoring of Per2::Luciferase reporter in U2OS cells (LumiCycle). The data set is classed as cell-based. The following applies: for Modulatory Property: clock-modulatory classification. As to the method:
U2OS cells or mouse fibroblasts (MF) containing a Per2-luciferase reporter (Yoo et al., 2004) were seeded at 4×10^5 concentration on 24 well plates and treated at 90% confluence with 1 ml 1×Fresh explant medium with desired compounds and controls. The seeding density was decided after trying several densities and choosing the one that after 24 h lead to 90% confluence. 1× Fresh explant medium was produced using 50% 2×DMEM buffer stock [DMEM powder (Gibco—Thermo Fisher CN: 12800-017), Sterile MilliQ water, pH7 1 M HEPES (Gibco—Thermo Fisher CN:15630080) and 7.5% Sodium Bicarbonate (Gibco—Thermo Fisher CN: 25080094)], 10% FBS (Cytiva), 37.9% Sterile MiliQ water, 1% PSG 100× (Gibco—Thermo Fisher CN: 10378016), 0.1% Sodium Hydroxixe (NaOH) 100 mM (Fishel Chemical CN: S318-500), 1% XenoLight D-Luciferin—Monopotassium Salt Bioluminiscent Substrate 100 mM (PerkinElmer CN: 122799). Treated cells were introduced to the LumiCycle96 (ActiMetrics) were they were cultured and Per2-luciferafe reporter luminescence was measured for 6 days. Raw and subtracted results for 5 days were exported and data was calculated as luminescence counts per second.

The subject of data set [4] is Wnt signaling activity. Nature of the data set: TOPFlash luciferase reporter (Wnt activity) in U2OS cells. Format: cell-based. The following applies: for TOPFlash reporter activity, Wnt3a-containing media: Wnt3a stimulated; for TOPFlash Wnt activity, basal condition: without Wnt stimulation. As to the method:
FIGS. 20A-20F. Effect of CM002 on activating circadian clock function. […] We tested the effect of CM002 from 0.2-5 μM on clock modulation in […] cells containing Per2::dLuc reporter using Lumicycle by monitoring chemiluminescence recordings for 6 days. The results were presented using the average original luminescence (FIG. 20A) or baseline-adjusted presentation (FIG. 20B). […] Based on the known clock effect on stimulating Wnt signaling activity, we used a TCF4 promoter-driven TOPFlash luciferase reporter to determine the effect of CM002 on Wnt pathway and compared this activity with CHX.
TOPFlash luciferase reporter assay. M50 Super 8×TOPFlash luciferase reporter containing Wnt-responsive TCF bindings sites was a gift from Randall Moon (Veeman, Slusarski, Kaykas et al., 2003) obtained from Addgene (Addgene plasmid #12456). Cells were seeded and grown overnight, and cell transfection was performed at 90% confluency. 24 hours following transfection, cells were treated using 10% Wnt3a conditioned media obtained from L Wnt-3A cell line (ATCC CRL-2647) to induce luciferase activity. Luciferase activity was assayed using Dual-Luciferase Reporter Assay Kit (Promega) in 96-well black plates. TOPFlash luciferase reporter luminescence was measured on microplate reader (TECAN infinite M200pro) and normalized to control FOPFlash activity, as previously described (Guo et al., 2012). The mean and standard deviation values were calculated for each well and graphed.
A general note: Reporter assays use an easily measured gene product as a stand-in for the process of interest.

The subject of data set [5] is CLOCK and Bmal1 interaction. The data set can be described thus: Co-immunoprecipitation of Bmal1 with Myc-CLOCK. Format: cell-based.
In data set [6] the test system is human primary myoblasts derived from DMD patients. Nature of the data set: MTT cell viability of human DMD primary myoblasts. Format: cell-based. As to the method:
Cells were seeded at 5×10^4 concentration in 100 μl culture medium into 96 wells flat bottom microplates and treated after 24 h with desired compounds and controls. After desired incubation periods, cells were treated with MTT labeling reagent 1× (MTT (3-[4,5-dimethylthiazol-2-yl]-2,5-diphenyltetrazolium bromide labeling reagent, 5 mg/ml in PBS, Roche Cell Proliferation Kit I (MTT)) and Solubilization buffer 1× (10% SDS in 0.01 M HCl and left overnight. Next morning absorbance was measured at 570 nm and 700 nm on microplate (ELISA) reader (TECAN infinite M200pro). The mean and standard deviation values were calculated for each well and graphed.
FIGS. 41A-41D. Effect of Chlorhexidine (CHX) and CM002 treatment on viability of mouse and human myoblasts. To determine potential toxic effects of CHX and CM002, we treated mouse C2C12 myoblast cell line with increasing concentrations from 0.2-5 μM for 48 hours and determined cell viability using the MTT assay (FIG. 41A). […] Considering the inflammatory milieus in dystrophic muscles, we further tested the tolerance of myoblasts to these molecules in the presence of inflammatory stimuli, a cytokine cocktail (CC) consisted of 10 ng/mL IL-1β, 100 ng/mL IFN-γ and 25 ng/mL of TNF-α (FIG. 41B). […] Lastly, human primary myoblasts derived from Duchene Muscular Dystrophy (DMD) patients were used to determine their tolerance to these compounds.

The mark [7] stands for this setting: U2OS Per2 luciferase reporter, recording 5-6 days, vs DMSO.

Turning to `[H]/N=C(\N/C(=N/[H])NCCCCCCNC(=N)NC(=N)Nc1ccc(Cl)cc1)Nc1ccc(Cl)cc1` [CHX, chlorhexidine], the “increase of proliferation (EdU incorporation)” value in data set [1] (both concentrations tested, 24 hours) is given as approximately 40%. For the same molecule, in data set [2], the “β-catenin protein level during adipogenic differentiation” value is listed as “sufficient to re-activate the lost b-catenin protein level during adipogenic differentiation”; the “mRNA levels of Wnt ligands and receptors” value was “induced the mRNA levels of Wnt1, Wnt10a, Fzd2, Fzd5”; the clock gene expression entry was “inductions of Pers and Crys”. In data set [3] (CHX at 5 and 10 μM), the “toxicity in reporter cells” value is given as “significant toxicity with reduced amplitude”. Moreover, the “effective concentration range, dose response of bioluminescence activity” value in data set [3] (Per2-Luc U2OS cells) lay within 0.2 to 2 µM. For the same molecule, in data set [3] (setting [7]), the circadian period length result is recorded as “dose-dependent reduction of period length from 0.2 to 1 μM” and the clock cycling amplitude entry is given as “at a low concentration of 0.2 μM induced clock amplitude, but not at any higher concentrations examined”. In addition, in data set [3], the “Modulatory Property” value is “clock activator”. In data set [4], the “TOPFlash reporter activity, Wnt3a-containing media” value is reported as “significantly induced” and the “TOPFlash Wnt activity, basal condition” value is “augmented Wnt activity at basal condition”. Also, the “Bmal1 interaction with CLOCK C267 mutant” value in data set [5] (Cysteine to Alanine mutant of CLOCK) is “failed to increase Bmal1 interaction with CLOCK C267 mutant”. The “Bmal1 immunoprecipitated by Myc-CLOCK (CLOCK/Bmal1 interaction)” value in data set [5] (wild-type CLOCK, CHX 0.5 and 1 μM) is listed as “sufficient to augment their interaction”. Also, the “concentration up to which viability is not significantly compromised” value in data set [6] (with cytokine cocktail) is on record as “up to 5 μM”.

Consider `CCCCCC/C=N/C(=N)NC(=N)Nc1ccc(Cl)cc1` [CM002], for which, in data set [1] (4 hours, 0.5 and 1 μM), the “proliferation (EdU incorporation)” value was “significantly increased proliferation of C2C12 myoblasts”. In data set [2], the “β-catenin protein level during adipogenic differentiation” value was “partially reverse the decline of β-catenin level at the differentiated state”; the “mRNA levels of Wnt ligands and receptors” value is “significant induction of Wnt ligands including Wnt1 and Wnt10a transcripts”; the clock gene expression result was “induction of core clock transcription activators, CLOCK and Bmal1, together with up-regulation of its direct transcriptional target within the molecular clock loop, Nr1d1”. In addition, in data set [3] (Table 1, U2OS Per2::dLuc), the “LumiCycle Result: Clock activity, Amplitude” value is on record as “Amplitude: Increased” and the “LumiCycle Result: Clock activity, Period” value is reported as “Period: Shortening”. In addition, the “LumiCycle Result: Clock activity (overall)” value in data set [3] (U2OS Per2::dLuc, CHX analogs screened) is “strongest effect on activating circadian clock function”. In addition, the circadian period length entry in data set [3] (setting [7]) was “shortening of period length starting at 0.2 μM that was maintained at 2 μM; also recorded: dose-dependent effect on inducing clock period length shortening”. Further, the “Modulatory Property” value in data set [3] is “strong clock activator”. Moreover, in data set [4], the “TOPFlash reporter activity, Wnt3a-containing media” value is given as 0.1 μM of CM002 comparable to that of CHX induction at 1 μM and the “TOPFlash Wnt activity, basal condition” value is “augmented Wnt activity at basal condition”. Besides, the “cell death at 5 μM” value in data set [6] (human, 5 μM) is given as “displaying sensitivity to cell death by CM002 treatment at this concentration”.
